activity, IC50 and inhibition data for two compounds are collected here from PMC6277545, “Structural Basis for the Limited Response to Oxidative and Thiol-Conjugating Agents by Triosephosphate Isomerase From the Photosynthetic Bacteria Synechocystis” (Frontiers in Molecular Biosciences, 2018).

Holding throughout (type): biochemical
Test [1] has as its target T1, SyTPI (Synechocystis sp. PCC 6803, UniProt Q59994).
T1 construct: gene tpiA; full length, codon-optimised, E. coli BL21(DE3) delta-tpi; His tag cut by PreScission, extra Gly-Pro-His before Met1; homodimer 54 kDa
Put plainly: residual activity after […] h incubation with reagent, coupled assay. Conditions: read-out: % activity at 0.5 mM.

The target in a further test is T2, AtpdTPI (Arabidopsis thaliana, UniProt Q9SKP6).
T2 construct: gene TIM; expression not described here
T2 sequence (Q9SKP6 60-315 limits assumed): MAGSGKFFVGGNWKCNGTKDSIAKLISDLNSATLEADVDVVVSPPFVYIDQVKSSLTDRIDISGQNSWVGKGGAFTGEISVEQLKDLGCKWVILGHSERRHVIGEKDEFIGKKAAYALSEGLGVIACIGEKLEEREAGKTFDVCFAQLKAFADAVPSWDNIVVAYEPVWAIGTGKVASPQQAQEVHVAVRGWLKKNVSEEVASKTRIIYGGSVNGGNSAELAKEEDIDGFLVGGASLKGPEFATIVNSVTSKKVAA
The description is as above. Conditions: read-out: concentration giving 50% of original activity.

In the next test the target is T3, AtcTPI (Arabidopsis thaliana, UniProt P48491).
T3 construct: gene CTIMC; cytosolic isoform, purified dimer; expression not described here
T3 sequence (P48491 whole entry, canonical isoform): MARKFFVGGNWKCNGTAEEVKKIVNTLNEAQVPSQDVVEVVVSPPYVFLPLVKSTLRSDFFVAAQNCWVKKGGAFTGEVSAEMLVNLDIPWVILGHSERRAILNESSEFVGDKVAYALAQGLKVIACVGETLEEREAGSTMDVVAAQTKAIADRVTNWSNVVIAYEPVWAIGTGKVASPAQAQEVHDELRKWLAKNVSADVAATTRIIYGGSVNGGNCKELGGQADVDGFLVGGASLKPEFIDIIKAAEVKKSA
The test is described as above. Conditions: read-out: concentration giving 50% of original activity.

In test [2] the target is T1, SyTPI. Put plainly: residual activity after […] min incubation, coupled assay.
In test [3] the target is T4, HsTPI (Homo sapiens, UniProt P60174).
T4 construct: gene TPI1; source and expression not described; dimer
T4 sequence (P60174 2-249): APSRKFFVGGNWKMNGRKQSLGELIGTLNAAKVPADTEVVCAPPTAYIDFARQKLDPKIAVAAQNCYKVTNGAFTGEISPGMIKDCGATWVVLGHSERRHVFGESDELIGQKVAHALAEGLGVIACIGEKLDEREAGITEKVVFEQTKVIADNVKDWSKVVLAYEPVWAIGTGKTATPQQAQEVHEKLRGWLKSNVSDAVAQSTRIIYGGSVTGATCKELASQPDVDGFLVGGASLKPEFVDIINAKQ
The test is described as above.

The target in test [4] is T5, HsTPI (Homo sapiens, UniProt P60174, L109T/S106T/V102Y).
T5 construct: gene TPI1; source and expression not described; dimer
T5 sequence (P60174 2-249 V102Y/S106T/L109T): as the sequence (P60174 2-249) above, with V101Y, S105T, L108T counted along it
Put plainly: activity with / without ornidazole after […] h.

Broadly, the inhibition is how much of the control response was suppressed.

T1 sequence (Q59994 whole entry): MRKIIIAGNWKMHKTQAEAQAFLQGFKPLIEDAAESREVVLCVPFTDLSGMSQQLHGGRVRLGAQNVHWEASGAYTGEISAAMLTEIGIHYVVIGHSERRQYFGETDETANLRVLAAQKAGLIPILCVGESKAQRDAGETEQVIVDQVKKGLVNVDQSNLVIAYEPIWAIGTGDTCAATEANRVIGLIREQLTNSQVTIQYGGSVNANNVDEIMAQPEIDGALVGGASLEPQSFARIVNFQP

Regarding `CSS(C)(=O)=O` [S-methyl methanethiosulfonate], the activity at 500 µM on SyTPI [1] is 50%. Further, the IC50 came out at 18 µM at AtpdTPI and 0.005 µM on AtcTPI.

Turning to `Cc1ncc([N+](=O)[O-])n1CC(O)CCl` (stereo not drawn) [ornidazole], the inhibition at 50 µM against SyTPI [2] was about 80%. Further, the activity at 50 µM on HsTPI [3] is 90%; at HsTPI [4], about 60%.
